Legend:
[1] = Plasma drug concentration by different routes of administration; format: in vivo, C57BL/6 mice; settings: for Plasma Concentration: time 0 (pre-dose); for concentration at 5 min / concentration at 15 min / concentration at 30 min / concentration at 60 min / concentration at 120 min / concentration at 240 min / concentration at 480 min: C57BL/6, mouse, plasma
Method: The following materials and methods are provided to facilitate the practice of Example 9, in which drug concentration in certain biological samples were assessed using different routes of administration.
Parameters Used in Dosing and Drug Administration of the Compound of Example 3:
Adult C57BL/6 mice (preferred 16 weeks old).
Three mice per time point. If all three routes are conducted in same day, one group of pre-dose is efficient.
In the studies using adult C57BL/6 mice (preferably approximately 16 weeks old), dosing and drug administration parameters for the compound of Example 3 were explored. Clearly, the compound is suitable for oral administration and lasts in the plasma up to 2-3 hours.

[2] = molecular target: dopamine transporter (DAT) (Cavia porcellus, UniProt H0WCX4); assay: Dopamine transporter binding assay [3H]WIN 35,428; parameters: species or system Guinea Pig; settings: for inhibition at 10 µM: read-out: INH at 10 μM DAT
Method: DAT inhibition activity was tested according to the procedure described by J. Javitz et al., Mol. Pharmacol., 26: 35-44 (1984). The test results for a number of representative compounds of the invention are reported hereinbelow.
I. Dopamine Transporter Binding Assay [3H]WIN 35,428
• This assay was carried out according to the procedure described by Javitch, J. J. et al., Mol. Pharmacol. 26: 35-44; 1984
A. Tissue Preparation (Prepare all Solutions on Ice) • 1. Thaw frozen brains from male Guinea Pigs (in assay buffer) and place in 50 mM TRIS-HCl (pH 7.4 at 25° C. with 120 mM NaCl). Isolate striatum. • 2. Use a Polytron to homogenize tissue in 20 vols. (w/v) of 50 mM Tris-HCl (pH 7.4 at 25° C. with 120 mM NaCl). • 3. Centrifuge homogenate at 48,400×g for approximately 10 minutes at 4° C. Discard supernatant. • 4. Wash pellet an additional time as described in steps 2 and 3. • 5. Store pellet on ice until needed for binding assay. • 6. Using a Polytron (setting 5; approximately 10 seconds) resuspend pellet in 50 mM Tris-HCl (pH 7.4 at 25° C. with 120 mM NaCl) to an initial concentration of 10 mg/ml (original wet weight), such that the final concentration is 8 mg/ml or 4.0 mg tissue/tube.
B. Binding Reaction • 1. Each tube receives the following components: • 50 ul drug or vehicle • 50 ul [3H]-WIN 35,428 • 400 ul tissue suspension. • 2. Initiate binding reaction with the addition of tissue, and incubate for 120 minutes at 0° C. (on ice). • 3. Terminate binding reaction by rapid filtration of tube contents onto untreated Whatman GF/C filters. • 4. Rinse the assay tubes once with ice cold 50 mM TRIS HCl (pH 7.4 at 25° C. with 120 mM NaCl, BSA), then rapidly rinse the filters with 6×1 mls/tube of the same wash buffer. • 5. Radioactivity trapped onto the filters is assessed using LSM machine. Let sit for 3 hours in scint cocktail.
C. Dopamine Tranasporter Binding Assay
Materials and Reagents • 1. [3H]-WIN 35-428 is diluted to a concentration of 60 nM in 50 mM TRIS HCl (pH 7.4 at 25° C. with 120 mM NaCl). Thus, the final ligand concentration is 6 nM. • 2. Non-specific binding is defined as that remaining in the presence of 1×10^-6 M GBR12909 (room temperature cabinet). GBR12909 MW=523.5 g/mol. Will solubilize in 4% DMSO (sonicate 15 minutes). Aliquots can be used (1E-3). • 3. The reference compound for the assay is GBR12909 and is diluted in 4% DMSO and is then run at the following final concentrations: 1×10^−10, 5×10^−10, 2×10^−9, 5×10^−9, 1×10^−8, 2×10^−8, 5×10^−8, 1×10^−7, 2×10^−7, 5×10^−7, 1×10^−6, 5×10^−6. • 4. The positive control GBR12909 and is run at the final concentrations of: 2×10-8, 1×10^−7, 5×10^−7M. • 5. The Kd for the receptor is 28.0 nM. Buffers

Sequence of dopamine transporter (DAT) (H0WCX4 1-619): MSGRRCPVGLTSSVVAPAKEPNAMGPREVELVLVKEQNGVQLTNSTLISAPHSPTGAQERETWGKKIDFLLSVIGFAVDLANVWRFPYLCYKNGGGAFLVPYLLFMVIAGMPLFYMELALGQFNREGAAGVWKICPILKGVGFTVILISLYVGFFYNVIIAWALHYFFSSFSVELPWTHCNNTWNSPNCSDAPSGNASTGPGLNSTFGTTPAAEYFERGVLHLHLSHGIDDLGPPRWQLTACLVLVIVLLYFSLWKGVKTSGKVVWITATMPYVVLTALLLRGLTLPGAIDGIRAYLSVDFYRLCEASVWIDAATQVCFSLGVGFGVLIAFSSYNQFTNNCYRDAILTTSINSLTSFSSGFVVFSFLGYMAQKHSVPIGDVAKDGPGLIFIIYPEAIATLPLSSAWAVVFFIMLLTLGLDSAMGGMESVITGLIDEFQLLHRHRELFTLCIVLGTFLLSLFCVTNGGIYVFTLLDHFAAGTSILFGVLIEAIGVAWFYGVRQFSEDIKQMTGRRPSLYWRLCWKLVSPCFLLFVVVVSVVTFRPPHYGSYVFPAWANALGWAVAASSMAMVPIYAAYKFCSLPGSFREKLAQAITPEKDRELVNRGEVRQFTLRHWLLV

For `Cc1ccc(C[n+]2[cH-]/c(=N\C(=O)Nc3ccccc3)on2)cc1` [Example 3, N-phenylcarbamoyl-3-(p-methyl-benzyl)-sydnonimine], the “Plasma Concentration” value ([1]; 10 mg/kg (IP)) was 21.00 ng/mL, the “Plasma Concentration” value ([1]; 10 mg/kg (IV)) was 18.33 ng/mL and the “Plasma Concentration” value ([1]; 10 mg/kg (PO)) was 10.60 ng/mL. The “Plasma Concentration” value ([1]; 30 mg/kg (PO)) was 8.93 ng/mL, the concentration at 5 min ([1]; intraperitoneal, 10 mg/kg (IP)) was 973 ng/mL and the concentration at 15 min ([1]; intraperitoneal, 10 mg/kg (IP)) was 316 ng/mL. For the same compound, the concentration at 30 min ([1]; intraperitoneal, 10 mg/kg (IP)) was 544 ng/mL, the concentration at 60 min ([1]; intraperitoneal, 10 mg/kg (IP)) was 115 ng/mL and the concentration at 120 min ([1]; intraperitoneal, 10 mg/kg (IP)) was 82.5 ng/mL. It also gave a concentration at 240 min ([1]; intraperitoneal, 10 mg/kg (IP)) of 34 ng/mL, a concentration at 480 min ([1]; intraperitoneal, 10 mg/kg (IP)) of 31.2 ng/mL and a concentration at 5 min ([1]; 10 mg/kg (IV)) of 2090 ng/mL. The concentration at 15 min ([1]; 10 mg/kg (IV)) was 2110 ng/mL, the concentration at 30 min ([1]; 10 mg/kg (IV)) was 915 ng/mL and the concentration at 60 min ([1]; 10 mg/kg (IV)) was 417 ng/mL. The concentration at 120 min ([1]; 10 mg/kg (IV)) was 139 ng/mL, the concentration at 240 min ([1]; 10 mg/kg (IV)) was 47.4 ng/mL and the concentration at 480 min ([1]; 10 mg/kg (IV)) was 94.6 ng/mL. For the same compound, the concentration at 5 min ([1]; 10 mg/kg (PO)) was 218 ng/mL, the concentration at 15 min ([1]; 10 mg/kg (PO)) was 115 ng/mL and the concentration at 30 min ([1]; 10 mg/kg (PO)) was 59.9 ng/mL. For the same compound, the concentration at 60 min ([1]; 10 mg/kg (PO)) was 21.3 ng/mL, the concentration at 120 min ([1]; 10 mg/kg (PO)) was 17.6 ng/mL and the concentration at 240 min ([1]; 10 mg/kg (PO)) was 15.8 ng/mL. It also gave a concentration at 480 min ([1]; 10 mg/kg (PO)) of 14.3 ng/mL, a concentration at 5 min ([1]; 30 mg/kg (PO)) of 838 ng/mL and a concentration at 15 min ([1]; 30 mg/kg (PO)) of 670 ng/mL. For the same compound, the concentration at 30 min ([1]; 30 mg/kg (PO)) was 375 ng/mL, the concentration at 60 min ([1]; 30 mg/kg (PO)) was 114 ng/mL and the concentration at 120 min ([1]; 30 mg/kg (PO)) was 41.9 ng/mL. The concentration at 240 min ([1]; 30 mg/kg (PO)) was 48.5 ng/mL, the concentration at 480 min ([1]; 30 mg/kg (PO)) was 13.4 ng/mL and the “Time the compound lasts in the plasma” value ([1]; mouse, in vivo) was 2 to 3 h. It also gave a Ki [2] of 0.19 nM and an inhibition at 10 µM [2] of 94%.

For `O=C(/N=c1\[cH-][n+](CCCc2ccccc2)no1)Nc1ccccc1` [Example 6, N-phenylcarbamoyl-3-(phenylpropyl)-sydnonimine], the “Oral bioavailability compared to Example 3” value ([1]; oral, 10 and 30 mg/kg, FIG. 3) was “relatively higher oral bioavailability”, the “Bioavailability in the plasma and brain compared to Example 3” value ([1]; same dosage, different routes, FIGS. 2A-2D) was “slightly better bioavailability” and the Ki [2] was 25 nM. The inhibition at 10 µM [2] was 96%.

Source: patent US9604945B2, “Sydnonimines-specific dopamine reuptake inhibitors and their use in treating dopamine related disorders” (priority 2007, dated 2017)
